# According to article PMC6848746 (Psychopharmacology, 2019):
# Legend:
# [1] = target: SERT (Rattus norvegicus, UniProt P31652); test: SERT-mediated release of [3H]5-HT from rat brain synaptosomes; type: biochemical; conditions: for Emax: read-out: SERT-mediated release Emax
# [2] = target: T1, α1A (Homo sapiens, UniProt P35348); test: Radioligand binding
# T1 sequence (P35348 1-466): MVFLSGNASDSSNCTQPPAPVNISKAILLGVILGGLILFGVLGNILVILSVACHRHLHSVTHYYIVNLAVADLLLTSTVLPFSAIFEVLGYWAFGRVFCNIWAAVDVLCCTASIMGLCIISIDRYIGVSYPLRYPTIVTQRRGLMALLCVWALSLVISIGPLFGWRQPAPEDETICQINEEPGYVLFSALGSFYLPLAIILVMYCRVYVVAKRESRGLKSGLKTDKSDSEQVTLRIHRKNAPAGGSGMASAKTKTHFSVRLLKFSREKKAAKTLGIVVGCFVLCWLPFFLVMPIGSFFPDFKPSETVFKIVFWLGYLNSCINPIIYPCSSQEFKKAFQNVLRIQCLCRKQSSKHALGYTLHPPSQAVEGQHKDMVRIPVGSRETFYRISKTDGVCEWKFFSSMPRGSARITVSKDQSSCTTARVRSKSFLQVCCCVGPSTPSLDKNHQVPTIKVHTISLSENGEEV
# [3] = target: T2, α1D (Homo sapiens, UniProt P25100); test: Radioligand binding
# T2 sequence (P25100 1-572): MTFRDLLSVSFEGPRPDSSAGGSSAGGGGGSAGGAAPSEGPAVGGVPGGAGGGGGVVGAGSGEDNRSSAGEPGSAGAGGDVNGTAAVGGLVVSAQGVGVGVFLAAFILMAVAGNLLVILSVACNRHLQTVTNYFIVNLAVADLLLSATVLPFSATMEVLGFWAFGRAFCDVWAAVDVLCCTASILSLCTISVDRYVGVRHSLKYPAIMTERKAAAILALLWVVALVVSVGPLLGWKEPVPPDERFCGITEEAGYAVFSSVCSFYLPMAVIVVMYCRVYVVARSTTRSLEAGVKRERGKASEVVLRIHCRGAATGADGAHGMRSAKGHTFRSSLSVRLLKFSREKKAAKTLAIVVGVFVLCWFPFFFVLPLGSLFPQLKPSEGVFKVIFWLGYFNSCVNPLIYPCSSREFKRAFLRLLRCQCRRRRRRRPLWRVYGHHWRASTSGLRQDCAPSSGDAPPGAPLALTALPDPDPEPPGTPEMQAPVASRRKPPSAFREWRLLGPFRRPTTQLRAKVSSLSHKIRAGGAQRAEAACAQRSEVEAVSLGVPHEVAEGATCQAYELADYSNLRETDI
# [4] = target: T3, α2A (Homo sapiens, UniProt P08913); test: Radioligand binding; conditions: for fold lower affinity for α2A compared to 2-AI: binding, [3H]rauwolscine
# T3 sequence (P08913 1-465): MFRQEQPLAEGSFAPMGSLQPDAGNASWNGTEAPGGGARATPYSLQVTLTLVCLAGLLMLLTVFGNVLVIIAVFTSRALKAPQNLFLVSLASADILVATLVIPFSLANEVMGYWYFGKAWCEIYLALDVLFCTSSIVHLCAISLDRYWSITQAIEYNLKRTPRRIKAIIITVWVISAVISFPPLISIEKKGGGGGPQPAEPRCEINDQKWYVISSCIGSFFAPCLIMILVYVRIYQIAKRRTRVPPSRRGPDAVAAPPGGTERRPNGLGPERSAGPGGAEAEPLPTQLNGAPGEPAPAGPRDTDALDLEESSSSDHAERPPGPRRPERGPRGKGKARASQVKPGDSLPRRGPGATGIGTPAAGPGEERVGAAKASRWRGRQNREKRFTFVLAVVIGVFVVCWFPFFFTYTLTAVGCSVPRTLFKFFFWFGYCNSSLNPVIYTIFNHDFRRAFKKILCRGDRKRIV
# [5] = target: T4, α2B (Homo sapiens, UniProt P18089); test: Radioligand binding; conditions: for fold lower affinity for α2B compared to 2-AI: binding, [3H]rauwolscine
# T4 sequence (P18089 1-450): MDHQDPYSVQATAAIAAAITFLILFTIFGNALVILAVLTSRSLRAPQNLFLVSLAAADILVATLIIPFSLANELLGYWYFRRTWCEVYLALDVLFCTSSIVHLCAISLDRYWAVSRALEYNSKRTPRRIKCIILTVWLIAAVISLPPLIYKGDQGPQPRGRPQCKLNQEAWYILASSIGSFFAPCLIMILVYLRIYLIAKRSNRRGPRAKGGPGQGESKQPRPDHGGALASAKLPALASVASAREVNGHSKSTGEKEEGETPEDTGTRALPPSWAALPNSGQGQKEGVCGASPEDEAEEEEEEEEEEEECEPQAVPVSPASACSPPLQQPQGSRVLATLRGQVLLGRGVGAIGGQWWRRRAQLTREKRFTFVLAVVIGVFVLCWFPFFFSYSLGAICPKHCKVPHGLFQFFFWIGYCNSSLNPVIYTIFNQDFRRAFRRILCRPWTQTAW
# [6] = target: β1 (Homo sapiens, UniProt P08588); test: Radioligand binding
# [7] = target: β2 (Homo sapiens, UniProt P07550); test: Radioligand binding
# [8] = target: D1 (Homo sapiens, UniProt P21728); test: Radioligand binding
# [9] = target: T5, D4 (Homo sapiens, UniProt P21917); test: Radioligand binding
# T5 sequence (P21917 1-419): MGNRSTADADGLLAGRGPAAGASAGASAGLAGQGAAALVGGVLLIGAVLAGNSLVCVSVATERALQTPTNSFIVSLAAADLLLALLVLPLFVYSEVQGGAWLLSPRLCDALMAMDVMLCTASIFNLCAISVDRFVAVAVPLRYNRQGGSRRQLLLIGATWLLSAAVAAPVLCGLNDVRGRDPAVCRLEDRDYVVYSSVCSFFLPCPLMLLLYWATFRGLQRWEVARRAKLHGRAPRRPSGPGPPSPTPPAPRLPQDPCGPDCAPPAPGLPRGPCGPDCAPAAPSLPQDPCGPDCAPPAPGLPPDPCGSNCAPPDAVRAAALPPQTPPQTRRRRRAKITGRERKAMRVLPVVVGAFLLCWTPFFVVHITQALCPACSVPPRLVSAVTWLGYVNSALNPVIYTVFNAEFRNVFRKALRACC
# [10] = target: SERT (Homo sapiens, UniProt P31645); test: Radioligand binding
# [11] = target: T6, σ2 (Rattus norvegicus, UniProt Q5U3Y7); test: Radioligand binding
# T6 sequence (Q5U3Y7 1-176): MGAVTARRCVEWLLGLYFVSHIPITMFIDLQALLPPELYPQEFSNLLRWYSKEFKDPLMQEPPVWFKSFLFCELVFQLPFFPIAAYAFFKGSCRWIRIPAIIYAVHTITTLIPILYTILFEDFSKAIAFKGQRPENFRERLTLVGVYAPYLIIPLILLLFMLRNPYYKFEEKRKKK
# Sequence of β1 (P08588 whole entry): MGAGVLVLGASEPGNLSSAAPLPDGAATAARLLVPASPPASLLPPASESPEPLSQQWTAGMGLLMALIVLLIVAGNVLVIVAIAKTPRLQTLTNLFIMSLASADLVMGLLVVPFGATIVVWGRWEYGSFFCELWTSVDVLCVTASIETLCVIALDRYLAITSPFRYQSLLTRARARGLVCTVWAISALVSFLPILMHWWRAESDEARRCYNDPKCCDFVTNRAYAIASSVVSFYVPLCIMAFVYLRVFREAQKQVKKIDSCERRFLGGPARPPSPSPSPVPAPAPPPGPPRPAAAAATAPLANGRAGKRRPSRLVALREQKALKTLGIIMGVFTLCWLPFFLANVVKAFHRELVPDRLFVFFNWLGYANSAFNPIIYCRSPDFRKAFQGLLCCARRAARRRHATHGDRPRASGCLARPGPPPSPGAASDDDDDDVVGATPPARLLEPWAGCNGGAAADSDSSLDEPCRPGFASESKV
# Sequence of SERT (Rattus norvegicus, UniProt P31652) (P31652 whole entry): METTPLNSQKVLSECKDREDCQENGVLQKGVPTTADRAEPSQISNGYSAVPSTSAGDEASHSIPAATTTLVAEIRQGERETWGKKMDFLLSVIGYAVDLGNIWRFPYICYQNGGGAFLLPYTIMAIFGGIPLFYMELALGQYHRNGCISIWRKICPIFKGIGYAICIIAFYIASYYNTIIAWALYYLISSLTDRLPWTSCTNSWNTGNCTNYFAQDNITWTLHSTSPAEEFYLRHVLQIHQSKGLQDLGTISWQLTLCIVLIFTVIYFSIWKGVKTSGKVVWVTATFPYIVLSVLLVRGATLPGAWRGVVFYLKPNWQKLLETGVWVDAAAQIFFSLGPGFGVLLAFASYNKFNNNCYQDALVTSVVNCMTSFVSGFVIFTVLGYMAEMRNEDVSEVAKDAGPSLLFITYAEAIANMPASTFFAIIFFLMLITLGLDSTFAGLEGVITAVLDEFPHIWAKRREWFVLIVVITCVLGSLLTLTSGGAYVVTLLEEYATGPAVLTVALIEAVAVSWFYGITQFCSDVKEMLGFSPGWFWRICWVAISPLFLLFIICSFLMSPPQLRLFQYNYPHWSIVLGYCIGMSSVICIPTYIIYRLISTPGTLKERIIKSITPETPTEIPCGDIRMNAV
# Sequence of D1 (P21728 whole entry): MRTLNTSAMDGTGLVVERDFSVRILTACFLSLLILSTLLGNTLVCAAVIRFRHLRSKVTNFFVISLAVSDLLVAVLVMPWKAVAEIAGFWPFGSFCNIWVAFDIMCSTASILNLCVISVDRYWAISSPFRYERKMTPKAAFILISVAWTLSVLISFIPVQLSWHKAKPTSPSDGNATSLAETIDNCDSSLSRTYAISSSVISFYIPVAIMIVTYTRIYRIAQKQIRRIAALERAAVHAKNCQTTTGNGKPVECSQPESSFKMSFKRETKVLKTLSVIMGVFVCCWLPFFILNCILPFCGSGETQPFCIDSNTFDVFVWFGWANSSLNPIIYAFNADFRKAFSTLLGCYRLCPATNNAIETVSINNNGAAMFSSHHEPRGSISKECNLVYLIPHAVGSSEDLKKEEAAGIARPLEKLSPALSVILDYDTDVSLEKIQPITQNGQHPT
# Sequence of β2 (P07550 whole entry): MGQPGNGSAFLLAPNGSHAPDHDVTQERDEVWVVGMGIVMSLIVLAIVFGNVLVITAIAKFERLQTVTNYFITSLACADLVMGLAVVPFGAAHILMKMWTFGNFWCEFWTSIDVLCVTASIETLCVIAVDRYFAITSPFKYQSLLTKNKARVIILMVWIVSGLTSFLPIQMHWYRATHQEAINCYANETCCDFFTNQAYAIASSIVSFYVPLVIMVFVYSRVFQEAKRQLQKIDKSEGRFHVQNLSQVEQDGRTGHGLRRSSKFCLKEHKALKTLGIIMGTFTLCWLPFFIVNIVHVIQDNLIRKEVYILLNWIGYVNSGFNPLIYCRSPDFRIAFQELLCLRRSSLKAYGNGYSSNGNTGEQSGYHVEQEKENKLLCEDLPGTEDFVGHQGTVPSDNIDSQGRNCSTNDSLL
# Sequence of SERT (Homo sapiens, UniProt P31645) (P31645 whole entry): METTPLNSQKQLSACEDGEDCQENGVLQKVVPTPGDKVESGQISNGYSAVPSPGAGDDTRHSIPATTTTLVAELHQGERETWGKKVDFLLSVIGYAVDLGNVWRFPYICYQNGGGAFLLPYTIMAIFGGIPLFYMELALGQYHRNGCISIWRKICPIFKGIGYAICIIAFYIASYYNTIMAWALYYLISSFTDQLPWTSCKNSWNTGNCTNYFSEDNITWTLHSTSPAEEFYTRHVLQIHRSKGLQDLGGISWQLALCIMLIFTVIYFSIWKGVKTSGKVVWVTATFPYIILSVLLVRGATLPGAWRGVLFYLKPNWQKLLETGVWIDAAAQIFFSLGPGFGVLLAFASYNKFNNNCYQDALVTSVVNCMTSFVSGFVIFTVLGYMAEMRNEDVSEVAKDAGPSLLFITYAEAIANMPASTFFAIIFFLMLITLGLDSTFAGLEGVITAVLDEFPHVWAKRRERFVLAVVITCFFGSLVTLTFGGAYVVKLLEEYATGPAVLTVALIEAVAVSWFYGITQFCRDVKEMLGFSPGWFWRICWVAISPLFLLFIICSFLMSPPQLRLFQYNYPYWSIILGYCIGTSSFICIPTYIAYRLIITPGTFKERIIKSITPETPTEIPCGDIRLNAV
SMILES,EC50 [1],Emax [1],Ki [2],Ki [3],Ki [4],Ki [5],Ki [6],Ki [7],Ki [8],Ki [9],Ki [10],Ki [11],fold lower affinity for α2A compared to 2-AI [4],fold lower affinity for α2B compared to 2-AI [5]
"NC1Cc2cc3c(cc2C1)OCO3 [MDAI, 5,6-methylenedioxy-2-aminoindan]",114 ± 15 nM,102%,> 10 µM,> 10 µM,322 ± 114 nM,1120 nM,> 10 µM,> 10 µM,> 10 µM,> 10 µM,> 10 µM,> 10 µM,,
"COc1cc2c(cc1C)CC(N)C2 (stereo not drawn) [MMAI, 5-methoxy-6-methyl-2-aminoindan]",31 ± 5 nM,99%,> 10 µM,> 10 µM,724 ± 477 nM,1230 nM,> 10 µM,> 10 µM,> 10 µM,> 10 µM,4.82 µM,> 10 µM,5 fold,5 fold
"NC1Cc2ccccc2C1 [2-AI, 2-aminoindan]",> 10000 nM,,> 10 µM,> 10 µM,134 ± 31 nM,211 ± 81 nM,> 10 µM,> 10 µM,> 10 µM,> 10 µM,> 10 µM,> 10 µM,,
"COc1ccc2c(c1)CC(N)C2 (stereo not drawn) [5-MeO-AI, 5-methoxy-2-aminoindan]",134 ± 13 nM,104%,> 10 µM,> 10 µM,751 ± 338 nM,1550 nM,> 10 µM,> 10 µM,> 10 µM,> 10 µM,> 10 µM,> 10 µM,5 fold,5 fold
